From PubChem BioAssay AID248 (DTP/NCI, 2004)
Toxic doses and inconclusive results are not listed. Rule as the data show it: active = T/C of 150% or more; inactive = T/C below 125%.

Tested on: L1210 leukemia ip in BDF1 mice, survival T/C
Assay: NCI In Vivo Anticancer Drug Screen. Data for tumor model L1210 Leukemia (intraperitoneal) in B6D2F1 (BDF1) mice
Conditions: endpoint: mean survival time, higher = longer survival
Method in brief: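 Survival endpoint. Drug-treated group vs vehicle group, expressed as T divided by C. Tumor passaged by transplantation.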

[1] = dose: 75.0 mg/kg/injection, schedule: Q01DX001 (ip), vehicle: saline
[2] = dose: 150.0 mg/kg/injection, schedule: Q01DX001 (ip), vehicle: saline
[3] = dose: 50.0 mg/kg/injection, schedule: Q01DX009 (ip), vehicle: Klucel (hydroxypropylcellulose) (HPC)
[4] = dose: 100.0 mg/kg/injection, schedule: Q01DX009 (ip), vehicle: Klucel (hydroxypropylcellulose) (HPC)
[5] = dose: 50.0 mg/kg/injection, schedule: Q01DX001 (ip), vehicle: carboxymethylcellulose (CMC)
[6] = dose: 100.0 mg/kg/injection, schedule: Q01DX001 (ip), vehicle: carboxymethylcellulose (CMC)
[7] = dose: 200.0 mg/kg/injection, schedule: Q01DX001 (ip), vehicle: carboxymethylcellulose (CMC)
[8] = dose: 400.0 mg/kg/injection, schedule: Q01DX001 (ip), vehicle: carboxymethylcellulose (CMC)
[9] = dose: 100.0 mg/kg/injection, schedule: Q04DX003 (ip), vehicle: Klucel (hydroxypropylcellulose) (HPC)
[10] = dose: 200.0 mg/kg/injection, schedule: Q04DX003 (ip), vehicle: Klucel (hydroxypropylcellulose) (HPC)
[11] = dose: 400.0 mg/kg/injection, schedule: Q04DX003 (ip), vehicle: Klucel (hydroxypropylcellulose) (HPC)
[12] = dose: 100.0 mg/kg/injection, schedule: Q04DX002 (ip), vehicle: saline

Measured: T/C

CC(=O)OCC(OC(C)=O)C(OC(C)=O)C(C=O)OC(C)=O (stereo not given)
inactive: dose: 100.0 mg/kg/injection, schedule: Q01DX001 (ip), vehicle: Klucel (hydroxypropylcellulose) (HPC) 105 % of control | dose: 100.0 mg/kg/injection, schedule: Q01DX009 (ip), vehicle: saline with Tween-80 90 % of control | dose: 100.0 mg/kg/injection, schedule: Q04DX003 (ip), vehicle: saline with Tween-80 93 % of control | dose: 200.0 mg/kg/injection, schedule: Q01DX001 (ip), vehicle: Klucel (hydroxypropylcellulose) (HPC) 97 % of control | dose: 200.0 mg/kg/injection, schedule: Q01DX009 (ip), vehicle: saline with Tween-80 93 % of control | dose: 200.0 mg/kg/injection, schedule: Q04DX003 (ip), vehicle: saline with Tween-80 88 % of control | dose: 400.0 mg/kg/injection, schedule: Q01DX001 (ip), vehicle: Klucel (hydroxypropylcellulose) (HPC) 105 % of control | dose: 400.0 mg/kg/injection, schedule: Q01DX009 (ip), vehicle: saline with Tween-80 88 % of control | dose: 400.0 mg/kg/injection, schedule: Q04DX003 (ip), vehicle: saline with Tween-80 91 % of control

CCCCSCC(N)C(=O)OC (stereo not given)
inactive: dose: 100.0 mg/kg/injection, schedule: Q01DX009 (ip), vehicle: saline 96 % of control | dose: 100.0 mg/kg/injection, schedule: Q04DX003 (ip), vehicle: saline 106 % of control | dose: 200.0 mg/kg/injection, schedule: Q01DX009 (ip), vehicle: saline 101 % of control | dose: 200.0 mg/kg/injection, schedule: Q04DX003 (ip), vehicle: saline 100 % of control | dose: 400.0 mg/kg/injection, schedule: Q01DX009 (ip), vehicle: saline 112 % of control | dose: 400.0 mg/kg/injection, schedule: Q04DX003 (ip), vehicle: saline 97 % of control

COc1ccccc1N=C(N)N=C(N)N
inactive: [1] 96 % of control | [2] 104 % of control

NC(=O)c1cc(=O)n(C2OC(CO)C(O)C2O)c2nc(N)nc(N)c12 (stereo not given)
inactive: dose: 12.5 mg/kg/injection, schedule: Q01DX005 (ip), vehicle: water 93 % of control | dose: 25.0 mg/kg/injection, schedule: Q01DX005 (ip), vehicle: water 90 % of control | dose: 50.0 mg/kg/injection, schedule: Q01DX005 (ip), vehicle: water 90 % of control | dose: 100.0 mg/kg/injection, schedule: Q01DX005 (ip), vehicle: water 90 % of control | dose: 200.0 mg/kg/injection, schedule: Q01DX005 (ip), vehicle: water 93 % of control

COc1ccc2c(c1)c(-n1cc([N+](=O)[O-])nc1C)c(C)n2C(=O)c1ccc(Cl)cc1
inactive: [3] 97 % of control | [4] 97 % of control | dose: 200.0 mg/kg/injection, schedule: Q01DX009 (ip), vehicle: Klucel (hydroxypropylcellulose) (HPC) 93 % of control

Nc1nc(N)nc(CCc2nc(N)nc(N)n2)n1
inactive: [5] 95 % of control | [6] 90 % of control | [7] 87 % of control | [8] 92 % of control

CCOP(=O)(OCC)C1C(C)N1C(=O)Nc1ccccc1 (stereo not given)
inactive: dose: 25.0 mg/kg/injection, schedule: Q01DX009 (ip), vehicle: Klucel (hydroxypropylcellulose) (HPC) 106 % of control | [3] 105 % of control | [4] 110 % of control | [9] 101 % of control | [10] 100 % of control | [11] 106 % of control

Oc1[nH]c(=S)sc1/C=C1\C=Nc2ccccc21
inactive: [5] 90 % of control | [6] 92 % of control | [7] 90 % of control | [8] 90 % of control

CCCCNC(N)=S
inactive: [9] 98 % of control | [10] 104 % of control | [11] 102 % of control

Cc1ccc(CC(=O)N2CCOCC2)cc1
inactive: [6] 106 % of control | [7] 97 % of control | [8] 92 % of control

CC(OC1OC(CO)C(OC2OC(CO)C(O)C(O)C2O)C(O)C1O)C1CC(O)C2C3CCC4=CC(=O)CCC4(C)C3CCC12C (stereo not given)
inactive: dose: 25.0 mg/kg/injection, schedule: Q04DX002 (ip), vehicle: saline 104 % of control | dose: 50.0 mg/kg/injection, schedule: Q04DX002 (ip), vehicle: saline 107 % of control | [12] 96 % of control

CCP(CC)c1ccccc1
inactive: dose: 100.0 mg/kg/injection, schedule: Q01DX009 (sc), vehicle: olive oil, sesame oil, peanut oil 100 % of control | dose: 100.0 mg/kg/injection, schedule: Q04DX003 (sc), vehicle: olive oil, sesame oil, peanut oil 98 % of control | dose: 200.0 mg/kg/injection, schedule: Q01DX009 (sc), vehicle: olive oil, sesame oil, peanut oil 102 % of control | dose: 200.0 mg/kg/injection, schedule: Q04DX003 (sc), vehicle: olive oil, sesame oil, peanut oil 96 % of control | dose: 400.0 mg/kg/injection, schedule: Q01DX009 (sc), vehicle: olive oil, sesame oil, peanut oil 107 % of control | dose: 400.0 mg/kg/injection, schedule: Q04DX003 (sc), vehicle: olive oil, sesame oil, peanut oil 98 % of control

O=C(O)CN1C(=O)CNC12CCCC2
inactive: dose: 100.0 mg/kg/injection, schedule: Q01DX001 (ip), vehicle: saline 100 % of control | dose: 200.0 mg/kg/injection, schedule: Q01DX001 (ip), vehicle: saline 108 % of control | dose: 400.0 mg/kg/injection, schedule: Q01DX001 (ip), vehicle: saline 93 % of control

CCCCCCCCCC(=O)N1C(C)CCCC1C (stereo not given)
inactive: [12] 94 % of control | dose: 200.0 mg/kg/injection, schedule: Q04DX002 (ip), vehicle: saline 105 % of control | dose: 400.0 mg/kg/injection, schedule: Q04DX002 (ip), vehicle: saline 105 % of control

c1cc[c]([Sn]([O]B([O][Sn]([c]2ccccc2)([c]2ccccc2)[c]2ccccc2)[O][Sn]([c]2ccccc2)([c]2ccccc2)[c]2ccccc2)([c]2ccccc2)[c]2ccccc2)cc1
inactive: dose: 5.0 mg/kg/injection, schedule: Q04DX002 (ip), vehicle: saline with Tween-80 101 % of control | dose: 10.0 mg/kg/injection, schedule: Q04DX002 (ip), vehicle: saline with Tween-80 104 % of control | dose: 20.0 mg/kg/injection, schedule: Q04DX002 (ip), vehicle: saline with Tween-80 101 % of control

C(=N\N1CCN(/N=C/c2ccc3ccccc3n2)CC1)/c1ccc2ccccc2n1
inactive: [6] 89 % of control | [7] 86 % of control | [8] 94 % of control

COc1ccc(C(C(C)=O)N2CCN(c3ccccc3)CC2)cc1 (stereo not given)
inactive: dose: 100.0 mg/kg/injection, schedule: Q04DX003 (ip), vehicle: other 98 % of control | dose: 200.0 mg/kg/injection, schedule: Q04DX003 (ip), vehicle: other 95 % of control

O=S(=O)(F)c1ccc(C[P+](c2ccccc2)(c2ccccc2)c2ccccc2)cc1
inactive: [1] 106 % of control | [2] 105 % of control | dose: 300.0 mg/kg/injection, schedule: Q01DX001 (ip), vehicle: saline 98 % of control

CN1CCC(C=C2c3ccccc3CCc3ccccc32)C1 (stereo not given)
inactive: dose: 3.12 mg/kg/injection, schedule: Q01DX009 (ip), vehicle: saline 100 % of control | dose: 6.25 mg/kg/injection, schedule: Q01DX009 (ip), vehicle: saline 92 % of control | dose: 12.5 mg/kg/injection, schedule: Q01DX009 (ip), vehicle: saline 100 % of control | dose: 25.0 mg/kg/injection, schedule: Q01DX009 (ip), vehicle: saline 98 % of control
